# Results as given in PubChem BioAssay (NCI).
#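 Five compound concentrations were applied to cells in 96-well plates for 48 hours; endpoints were derived by simple linear interpolation of the resulting dose-response curve. GI50: concentration for 50% inhibition of growth. TGI is the concentration that stops growth completely.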
# Tests used:
# Test in all cases: NCI anticancer screen, dose series, 48 h
# RPMI-8226 leukemia = test system: RPMI-8226 leukemia
# SK-MEL-5 melanoma = test system: SK-MEL-5 melanoma
# KM12 colon = test system: KM12 colon
# HCC-2998 colon = test system: HCC-2998 colon
# SNB-19 CNS = test system: SNB-19 CNS
# 786-0 renal = test system: 786-0 renal
# NCI/ADR-RES ovarian = test system: NCI/ADR-RES ovarian
# RXF 393 renal = test system: RXF 393 renal
# SK-MEL-2 melanoma = test system: SK-MEL-2 melanoma
# MDA-N = test system: MDA-N
# SNB-75 CNS = test system: SNB-75 CNS
smiles,measurement,setting,value
COc1ccc(OC)c([N+](=O)[O-])c1-c1nc2sc(C)c(C)n2c1/C=N/N=C(N)N,TGI,RPMI-8226 leukemia,89.9 µM
same,TGI,SK-MEL-5 melanoma,> 100 µM
same,TGI,KM12 colon,50.9 µM
same,TGI,HCC-2998 colon,> 100 µM
same,TGI,SNB-19 CNS,> 100 µM
same,TGI,786-0 renal,> 100 µM
same,TGI,NCI/ADR-RES ovarian,> 100 µM
same,TGI,RXF 393 renal,> 100 µM
same,TGI,SK-MEL-2 melanoma,40.5 µM
CC(C)=CC[C@H]1C[C@@]2(CC=C(C)C)C(=O)/C(=C(/O)c3ccccc3)C(=O)[C@](CC=C(C)C)(C2=O)C1(C)C,TGI,RPMI-8226 leukemia,> 100 µM
same,TGI,MDA-N,20.1 µM
same,TGI,SK-MEL-5 melanoma,17.8 µM
same,TGI,KM12 colon,19.9 µM
same,TGI,HCC-2998 colon,14.4 µM
same,TGI,SNB-19 CNS,20.4 µM
same,TGI,786-0 renal,21.4 µM
same,TGI,SNB-75 CNS,33.4 µM
same,TGI,NCI/ADR-RES ovarian,42.2 µM
same,TGI,RXF 393 renal,24.1 µM
same,TGI,SK-MEL-2 melanoma,8.24 µM
N=C(N)SCCN1CCCCC1,TGI,RPMI-8226 leukemia,40.2 µM
same,TGI,MDA-N,> 100 µM
same,TGI,SK-MEL-5 melanoma,> 100 µM
same,TGI,KM12 colon,> 100 µM
same,TGI,786-0 renal,51.5 µM
same,TGI,SNB-75 CNS,94.1 µM
same,TGI,NCI/ADR-RES ovarian,> 100 µM
same,TGI,RXF 393 renal,32.6 µM
same,TGI,SK-MEL-2 melanoma,17 µM
O=C(CSc1nc2ccc(I)cc2c(=O)n1Cc1ccccc1)NN1C(=O)CSC1c1ccccc1 (configuration not stated),TGI,RPMI-8226 leukemia,> 100 µM
same,TGI,MDA-N,> 100 µM
same,TGI,SK-MEL-5 melanoma,42.6 µM
same,TGI,KM12 colon,54.9 µM
same,TGI,HCC-2998 colon,53.2 µM
same,TGI,SNB-19 CNS,> 100 µM
same,TGI,786-0 renal,> 100 µM
same,TGI,SNB-75 CNS,> 100 µM
same,TGI,NCI/ADR-RES ovarian,57.2 µM
same,TGI,RXF 393 renal,57.4 µM
same,TGI,SK-MEL-2 melanoma,50.8 µM
C[N+]1(C)C/C(=C\c2ccc(O)cc2)C(=O)/C(=C/c2ccc(O)cc2)C1,TGI,RPMI-8226 leukemia,> 100 µM
same,TGI,SK-MEL-5 melanoma,> 100 µM
same,TGI,KM12 colon,> 100 µM
same,TGI,HCC-2998 colon,> 100 µM
same,TGI,SNB-19 CNS,> 100 µM
same,TGI,786-0 renal,> 100 µM
same,TGI,SNB-75 CNS,> 100 µM
same,TGI,RXF 393 renal,> 100 µM
CC(=O)[C@]12OC(=O)C3=C1[C@H](CC[C@@H]3C)[C@@H](C)C[C@H]2C=C(C)C,TGI,RPMI-8226 leukemia,15.5 µM
same,TGI,MDA-N,16.9 µM
same,TGI,SK-MEL-5 melanoma,11.8 µM
same,TGI,KM12 colon,14.9 µM
same,TGI,SNB-19 CNS,16.4 µM
same,TGI,786-0 renal,15.7 µM
same,TGI,NCI/ADR-RES ovarian,17.7 µM
same,TGI,SK-MEL-2 melanoma,14.7 µM
CCCCCCCCc1ccc(CCC(N)(CO)CO)cc1,GI50,SK-MEL-5 melanoma,1.62 µM
same,TGI,SK-MEL-5 melanoma,2.98 µM
same,GI50,KM12 colon,1.93 µM
same,TGI,KM12 colon,3.44 µM
same,GI50,HCC-2998 colon,1.57 µM
same,TGI,HCC-2998 colon,2.96 µM
same,GI50,SNB-75 CNS,2.13 µM
same,TGI,SNB-75 CNS,4.2 µM
same,GI50,RXF 393 renal,1.52 µM
same,TGI,RXF 393 renal,2.85 µM
same,GI50,SK-MEL-2 melanoma,2.06 µM
same,TGI,SK-MEL-2 melanoma,3.76 µM
CC(=O)c1c(C)cc2cccc(OC3OC(CO)C(O)C(O)C3O)c2c1O (configuration not stated) (tested in a mixture with another compound),TGI,RPMI-8226 leukemia,> 100 µM
same,TGI,MDA-N,> 100 µM
same,TGI,SK-MEL-5 melanoma,> 100 µM
same,TGI,KM12 colon,> 100 µM
same,TGI,HCC-2998 colon,> 100 µM
same,TGI,SNB-19 CNS,> 100 µM
same,TGI,786-0 renal,> 100 µM
same,TGI,SNB-75 CNS,> 100 µM
same,TGI,NCI/ADR-RES ovarian,> 100 µM
same,TGI,RXF 393 renal,> 100 µM
same,TGI,SK-MEL-2 melanoma,> 100 µM
C=C(C[C@@H](O)[C@H](C)NC(=O)OCc1ccccc1)C(=O)OC(C)(C)C,TGI,RPMI-8226 leukemia,> 100 µM
same,TGI,MDA-N,> 100 µM
same,TGI,SK-MEL-5 melanoma,> 100 µM
same,TGI,KM12 colon,> 100 µM
same,TGI,HCC-2998 colon,> 100 µM
same,TGI,SNB-19 CNS,> 100 µM
same,TGI,SNB-75 CNS,> 100 µM
same,TGI,NCI/ADR-RES ovarian,> 100 µM
same,TGI,SK-MEL-2 melanoma,> 100 µM
COc1cc(O)c2c(=O)c(OC)c(-c3ccc(OC)c(OC)c3)oc2c1.[Zn+2],TGI,RPMI-8226 leukemia,> 100 µM
same,TGI,MDA-N,> 100 µM
same,GI50,SK-MEL-5 melanoma,17.6 µM
same,TGI,SK-MEL-5 melanoma,> 100 µM
same,GI50,HCC-2998 colon,43.1 µM
same,TGI,HCC-2998 colon,> 100 µM
same,GI50,SNB-19 CNS,4.31 µM
same,TGI,SNB-19 CNS,> 100 µM
same,TGI,786-0 renal,> 100 µM
same,TGI,SNB-75 CNS,8.79 µM
same,GI50,NCI/ADR-RES ovarian,14.9 µM
same,TGI,NCI/ADR-RES ovarian,> 100 µM
same,TGI,RXF 393 renal,45.6 µM
CC(=O)Oc1cc(/C=C/c2ccc(O)cc2)cc(OC(C)=O)c1,TGI,RPMI-8226 leukemia,25.4 µM
same,TGI,SK-MEL-5 melanoma,> 100 µM
same,TGI,KM12 colon,> 100 µM
same,TGI,SNB-19 CNS,> 100 µM
same,TGI,786-0 renal,> 100 µM
same,TGI,SNB-75 CNS,> 100 µM
same,TGI,NCI/ADR-RES ovarian,51.9 µM
same,TGI,RXF 393 renal,> 100 µM
same,TGI,SK-MEL-2 melanoma,> 100 µM
C[N+]1(c2ccccc2)C=C(c2ccccc2)SC1=S (configuration not stated),TGI,RPMI-8226 leukemia,> 100 µM
same,TGI,SK-MEL-5 melanoma,> 100 µM
same,TGI,KM12 colon,> 100 µM
same,TGI,HCC-2998 colon,> 100 µM
same,TGI,SNB-19 CNS,> 100 µM
same,TGI,786-0 renal,> 100 µM
same,TGI,NCI/ADR-RES ovarian,> 100 µM
same,TGI,RXF 393 renal,> 100 µM
same,TGI,SK-MEL-2 melanoma,> 100 µM
CC[C@H]1C=CCC[C@@]2(C[C@@H]3CC[C@H]4[C@@H](C(=O)OCCCCCCCCCCCCCCCC(=O)N(CCCNC(C)=O)C[C@H](CCNC(C)=O)OC(C)=O)[C@@]5(CCC[C@@H](C)O5)NC(=[N+]34)N2)O1,TGI,RPMI-8226 leukemia,0.554 µM
same,TGI,MDA-N,3.05 µM
same,TGI,SK-MEL-5 melanoma,2.57 µM
same,TGI,KM12 colon,2.67 µM
same,TGI,HCC-2998 colon,2.62 µM
same,TGI,SNB-19 CNS,3.07 µM
same,TGI,786-0 renal,3.4 µM
same,TGI,RXF 393 renal,3.44 µM
same,TGI,SK-MEL-2 melanoma,3.31 µM
Nc1ccc(S(=O)(=O)NCCS(=O)(=O)O)cc1,TGI,MDA-N,> 100 µM
same,TGI,SK-MEL-5 melanoma,> 100 µM
same,TGI,KM12 colon,> 100 µM
same,TGI,SNB-19 CNS,> 100 µM
same,TGI,786-0 renal,> 100 µM
same,TGI,SNB-75 CNS,> 100 µM
same,TGI,NCI/ADR-RES ovarian,> 100 µM
same,TGI,RXF 393 renal,> 100 µM
same,TGI,SK-MEL-2 melanoma,> 100 µM
NC(=S)N/N=C1\CC(c2ccccc2)Nc2ccccc21 (configuration not stated),TGI,RPMI-8226 leukemia,> 100 µM
same,TGI,SK-MEL-5 melanoma,50.9 µM
same,TGI,SNB-19 CNS,> 100 µM
same,TGI,SNB-75 CNS,49.1 µM
O=C(c1ccc(Cl)c(Cl)c1)N(C(=O)N1CCN(c2ccccc2)CC1)S(=O)(=O)c1ccccc1,TGI,RPMI-8226 leukemia,> 100 µM
same,TGI,MDA-N,62.8 µM
same,TGI,SK-MEL-5 melanoma,84.7 µM
same,TGI,KM12 colon,> 100 µM
same,TGI,HCC-2998 colon,> 100 µM
same,TGI,SNB-19 CNS,> 100 µM
same,TGI,786-0 renal,> 100 µM
same,TGI,SNB-75 CNS,> 100 µM
same,TGI,NCI/ADR-RES ovarian,> 100 µM
same,TGI,RXF 393 renal,> 100 µM
same,TGI,SK-MEL-2 melanoma,48.2 µM
O=C(/C=C/c1ccc(O)cc1)c1cc(-c2cc(CCC(=O)c3ccc(O)cc3O)ccc2O)c(O)cc1O,TGI,RPMI-8226 leukemia,> 50 µM
same,TGI,MDA-N,> 50 µM
same,TGI,SK-MEL-5 melanoma,> 50 µM
same,TGI,KM12 colon,> 50 µM
same,TGI,SNB-19 CNS,> 50 µM
same,TGI,786-0 renal,> 50 µM
same,TGI,SNB-75 CNS,41.7 µM
same,TGI,NCI/ADR-RES ovarian,> 50 µM
same,TGI,RXF 393 renal,> 50 µM
same,TGI,SK-MEL-2 melanoma,> 50 µM
Cc1ncc(COP(=O)(O)O)c(C)c1O,TGI,MDA-N,> 100 µM
same,TGI,SK-MEL-5 melanoma,> 100 µM
same,TGI,KM12 colon,> 100 µM
same,TGI,SNB-19 CNS,> 100 µM
same,TGI,786-0 renal,> 100 µM
same,TGI,NCI/ADR-RES ovarian,> 100 µM
same,TGI,RXF 393 renal,> 100 µM
same,TGI,SK-MEL-2 melanoma,> 100 µM
CC(=O)C(N=NC1CCC(S(=O)(=O)NB2N=CS2)CC1)C(=O)Nc1ccccc1C (configuration not stated),TGI,RPMI-8226 leukemia,> 100 µM
same,TGI,SK-MEL-5 melanoma,26.9 µM
same,TGI,KM12 colon,30.1 µM
same,TGI,HCC-2998 colon,31.4 µM
same,TGI,SNB-19 CNS,31.2 µM
same,TGI,SNB-75 CNS,33.8 µM
same,TGI,RXF 393 renal,35.9 µM
same,TGI,SK-MEL-2 melanoma,33.3 µM
CCOc1ccc(N=Nc2ccc(-c3ccc(N=Nc4c(O)ccc5cc(S(=O)(=O)O)cc(S(=O)(=O)O)c45)cc3)cc2)cc1,TGI,RPMI-8226 leukemia,> 100 µM
same,TGI,SK-MEL-5 melanoma,> 100 µM
same,TGI,KM12 colon,> 100 µM
same,TGI,HCC-2998 colon,> 100 µM
same,TGI,SNB-19 CNS,> 100 µM
same,TGI,786-0 renal,> 100 µM
same,TGI,NCI/ADR-RES ovarian,> 100 µM
same,TGI,RXF 393 renal,> 100 µM
same,TGI,SK-MEL-2 melanoma,> 100 µM
O=C1O/C(=C\C=C\CO)C=C1/C=C/CO,TGI,RPMI-8226 leukemia,47.6 µM
same,TGI,MDA-N,59.9 µM
same,TGI,SK-MEL-5 melanoma,46 µM
same,TGI,KM12 colon,> 100 µM
same,TGI,SNB-19 CNS,51.4 µM
same,TGI,786-0 renal,33.7 µM
same,TGI,SNB-75 CNS,> 100 µM
same,TGI,NCI/ADR-RES ovarian,89.1 µM
same,TGI,RXF 393 renal,38.3 µM
same,TGI,SK-MEL-2 melanoma,43.4 µM
